Source: patent US8063040B2, “Triazabenzo[E]azulene derivatives for the treatment of tumors” (Merck Patent Gesellschaft Mit Beschrankter Haftung, priority 2006, dated 2011)
Where a name gives a salt, the structure may show the parent alone.

Test system: TGF-beta
Test: Elimination of TGF-beta-mediated growth inhibition in Mv1Lu cells (Crystal Violet staining)
Assay type: cell-based
Details: lung epithelial cell line Mv1Lu, 1 ng/ml TGF-beta, 0.5% FCS, two days, absorption at 550 nm
Protocol: In-vitro (Enzyme) Assay for Determination of the Efficacy of the Inhibitors of the Inhibition of TGF-Beta-Mediated Effects
As an example, the ability of the inhibitors to eliminate TGF-beta-mediated growth inhibition is tested.
Cells of the lung epithelial cell line Mv1Lu are sown in a defined cell density in a 96-well microtitre plate and cultivated overnight under standard conditions. Next day, the medium is replaced by medium which comprises 0.5% of FCS and 1 ng/ml of TGF-beta, and the test substances are added in defined concentrations, generally in the form of dilution series with 5-fold steps. The concentration of the solvent DMSO is constant at 0.5%. After a further two days, Crystal Violet staining of the cells is carried out. After extraction of the Crystal Violet from the fixed cells, the absorption is measured spectrophotometrically at 550 nm. It can be used as a quantitative measure of the adherent cells present and thus of the cell proliferation during the culture.

Row | SMILES | IC50 (Mv1Lu, 48 h) [µM] | IC50 [µM]
1 | COc1ccc2c(c1)CCC(C)c1nnc(-c3cccc(C)n3)n1-2 (centres unmarked) [Compound A1, 8-methoxy-4-methyl-1-(6-methylpyridin-2-yl)-5,6-dihydro-4H-2,3,10b-triazabenz[e]azulene] | 3.9 | 
2 | Cc1cccc(-c2nnc3n2-c2ccc(O)cc2CCC3C)n1 (centres unmarked) [Compound A2, 8-hydroxy-4-methyl-1-(6-methylpyridin-2-yl)-5,6-dihydro-4H-2,3,10b-triazabenzo[e]azulene] |  | 0.2
3 | COc1ccc2c(c1)C(C)CCc1nnc(-c3cccc(C)n3)n1-2 (centres unmarked) [Compound A18, 8-Methoxy-6-methyl-1-(6-methylpyridin-2-yl)-5,6-dihydro-4H-2,3,10b-triazabenzo[e]azulene, trifluoroacetate] | 3.3 | 
4 | Cc1cccc(-c2nnc3n2-c2ccc(Cl)cc2C(C)CC3)n1 (centres unmarked) [Compound A4, 8-chloro-6-methyl-1-(6-methylpyridin-2-yl)-5,6-dihydro-4H-2,3,10b-triazabenzo[e]azulene] | 9.9 | 
5 | Cc1cccc(-c2nnc3n2-c2ccc(O)cc2CCC3C)n1 (centres unmarked) [Compound A19, 8-Hydroxy-4-methyl-1-(6-methylpyridin-2-yl)-5,6-dihydro-4H-2,3,10b-triazabenzo[e]azulene] |  | 2.5
